Laboratory results: patent US8623919B2, “Method of synthesizing S-allyl-cysteine analogues and their therapeutic application in treating myocardial infarction” (Fudan University, priority 2007, dated 2014)

Legend:
[1] = system: rats following MI injury; test: Plasma H2S levels in rats (sham or MI); type: in vivo, SD rats; details: 50 mg/Kg/day intraperitoneal
Method: (§1) Animals were assigned and prepared the same as in Example 7, and dosages of SPRC and SAC were used the same in this example as in Example 7.
The plasma levels of H2S in each treatment group were determined since CSE mediates the endogenous production of H2S in mammals. Plasma H2S concentrations in MI group rats at 48 h after MI induction were 34.7±5.6 μM (n=8). […] Left ventricular CSE activity was analyzed in the tissue homogenates from each treatment group (n=6). CSE activity was 1.58±0.15 μmol/g protein/hr in left the ventricular tissues in MI group and 2.19±0.32 μmol/g protein/hr in the MI+SAC treated rats.

[2] = system: Bcl-2; test: Western blot of Bcl-2 protein in left ventricle; type: in vivo, SD rats; details: MI rats, 50 mg/Kg/day, p<0.01
Text: as §1

`C#CCSC[C@H](N)C(=O)O` [SPRC, S-propargyl-cysteine] was tested, and the “H2S concentration in plasma” value ([1]; MI rats, 48 h after MI induction, 50 mg/kg/day) was 91.6 ± 7.6 µM, the “H2S concentration in plasma” value ([1]; Sham rats) was 67.2 ± 6.4 µM and the Bcl-2 protein expression [2] was “up-regulated”.
